Reference: the supplement of paper PMC13207355

Legend:
Conditions in all cases: exposure time: 72 h
[1] = tested on: E21 (patient-derived glioblastoma stem cells of mesenchymal subtype); test: phenotypic distance (Euclidean, principal components) from DMSO controls (arbitrary units); higher = stronger morphological change
[2] = tested on: E34 (patient-derived glioblastoma stem cells of proneural subtype); test: as above
[3] = tested on: E13 (patient-derived glioblastoma stem cells of classical subtype); test: as above
[4] = tested on: E57 (patient-derived glioblastoma stem cells of mesenchymal subtype); test: as above
[5] = tested on: E28 (patient-derived glioblastoma stem cells of classical subtype); test: as above
[6] = tested on: E31 (patient-derived glioblastoma stem cells of proneural subtype); test: as above
[7] = tested on: FT3469 (normal neural stem cell line); test: as above
[8] = tested on: E21; test: surviving fraction (nuclei count normalised to DMSO); higher = more cells surviving (less toxic)
[9] = tested on: E34; test: as above
[10] = tested on: E13; test: as above
[11] = tested on: E57; test: as above
[12] = tested on: E28; test: as above
[13] = tested on: E31; test: as above
[14] = tested on: FT3469; test: as above
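For phenotypic distance (Euclidean, principal components) from DMSO controls in this document: cell Painting imaging in 384-well plates, CellProfiler features reduced to at least 20 principal components, Euclidean distance versus same-plate DMSO vehicle wells (0.1% v/v), median over six images per well.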
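For surviving fraction (nuclei count normalised to DMSO) in this document: nuclei counted by high-content imaging of Hoechst-stained cells in laminin-coated 384-well plates, relative to 0.1% DMSO vehicle wells, with staurosporine as cell-death control.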

COc1cc(N)c(Cl)cc1C(=O)NC1CCN(CCCOc2ccc(F)cc2)CC1OC (stereo not drawn) [Cisapride]
Conditions | phenotypic distance | surviving fraction
[1], 4.1 nM | 0.524 | –
[1], 12.3 nM | 0.638 | –
[1], 37 nM | 0.752 | –
[1], 111.1 nM | 0.754 | –
[1], 333.3 nM | 0.818 | –
[1], 1000 nM | 0.872 | –
[1], 3000 nM | 1.14 | –
[2], 4.1 nM | 0.74 | –
[2], 12.3 nM | 0.611 | –
[2], 37 nM | 0.666 | –
[2], 111.1 nM | 0.904 | –
[2], 333.3 nM | 0.986 | –
[2], 1000 nM | 0.415 | –
[2], 3000 nM | 0.914 | –
[3], 4.1 nM | 0.873 | –
[3], 12.3 nM | 0.288 | –
[3], 37 nM | 0.382 | –
[3], 111.1 nM | 0.383 | –
[3], 333.3 nM | 0.399 | –
[3], 1000 nM | 0.304 | –
[3], 3000 nM | 0.549 | –
[4], 4.1 nM | 0.385 | –
[4], 12.3 nM | 0.606 | –
[4], 37 nM | 0.667 | –
[4], 111.1 nM | 0.47 | –
[4], 333.3 nM | 0.668 | –
[4], 1000 nM | 0.946 | –
[4], 3000 nM | 0.645 | –
[5], 4.1 nM | 0.867 | –
[5], 12.3 nM | 0.592 | –
[5], 37 nM | 0.923 | –
[5], 111.1 nM | 0.547 | –
[5], 333.3 nM | 1.1 | –
[5], 1000 nM | 0.901 | –
[5], 3000 nM | 1.01 | –
[6], 4.1 nM | 0.443 | –
[6], 12.3 nM | 0.553 | –
[6], 37 nM | 0.533 | –
[6], 111.1 nM | 0.657 | –
[6], 333.3 nM | 0.557 | –
[6], 1000 nM | 0.668 | –
[6], 3000 nM | 0.804 | –
[7], 4.1 nM | 1.16 | –
[7], 12.3 nM | 0.775 | –
[7], 37 nM | 1.12 | –
[7], 111.1 nM | 2.83 | –
[7], 333.3 nM | 0.576 | –
[7], 1000 nM | 1.05 | –
[7], 3000 nM | 0.797 | –
[8], 4.1 nM | – | 1.04
[8], 12.3 nM | – | 1.03
[8], 37 nM | – | 0.956
[8], 111.1 nM | – | 1.08
[8], 333.3 nM | – | 0.888
[8], 1000 nM | – | 0.863
[8], 3000 nM | – | 0.846
[9], 4.1 nM | – | 1.06
[9], 12.3 nM | – | 1.13
[9], 37 nM | – | 0.945
[9], 111.1 nM | – | 0.906
[9], 333.3 nM | – | 1.02
[9], 1000 nM | – | 0.971
[9], 3000 nM | – | 1.06
[10], 4.1 nM | – | 1.06
[10], 12.3 nM | – | 0.908
[10], 37 nM | – | 0.927
[10], 111.1 nM | – | 1
[10], 333.3 nM | – | 0.996
[10], 1000 nM | – | 0.958
[10], 3000 nM | – | 0.907
[11], 4.1 nM | – | 0.957
[11], 12.3 nM | – | 0.903
[11], 37 nM | – | 1.05
[11], 111.1 nM | – | 1.07
[11], 333.3 nM | – | 0.967
[11], 1000 nM | – | 1.04
[11], 3000 nM | – | 0.918
[12], 4.1 nM | – | 1.05
[12], 12.3 nM | – | 1.04
[12], 37 nM | – | 1.14
[12], 111.1 nM | – | 0.921
[12], 333.3 nM | – | 1.09
[12], 1000 nM | – | 0.963
[12], 3000 nM | – | 0.844
[13], 4.1 nM | – | 1.04
[13], 12.3 nM | – | 1.01
[13], 37 nM | – | 0.895
[13], 111.1 nM | – | 1
[13], 333.3 nM | – | 1.01
[13], 1000 nM | – | 0.972
[13], 3000 nM | – | 0.67
[14], 4.1 nM | – | 0.931
[14], 12.3 nM | – | 1.1
[14], 37 nM | – | 0.992
[14], 111.1 nM | – | 1.06
[14], 333.3 nM | – | 0.891
[14], 1000 nM | – | 1.2
[14], 3000 nM | – | 0.907
